Columns and labels:
Assay type in all cases: functional, Stomach
Mus musculus [1] = experiment: Gastroprotective activity in Swiss albino mouse assessed as reduction in HCl/EtOH-induced gastric lesions at 20 mg/kg, po pretreated for 50 mins followed by HCl/EtOH challenge measured after 1 hr; design: scale not given: the % may be the effect or the level left
Mus musculus [2] = experiment: (§1) Gastroprotective activity in Swiss albino mouse assessed as reduction in HCl/EtOH-induced gastric lesions by measuring lesion index at 100 mg/kg, po pretreated for 50 mins followed by HCl/EtOH challenge measured after 1 hr (reference value: 38.8 +/- 1.6 millimeter)
Mus musculus [3] = experiment: Gastroprotective activity in Swiss albino mouse assessed as reduction in HCl/EtOH-induced gastric lesions by measuring lesion index at 30 mg/kg, sc pretreated followed by HCl/EtOH challenge measured after 1 hr (reference value: 38.8 +/- 1.6 millimeter)
Mus musculus [4] = experiment: Gastroprotective activity in Swiss albino mouse assessed as reduction in HCl/EtOH-induced gastric lesions by measuring lesion index at 70 mg/kg, ip pretreated followed by HCl/EtOH challenge measured after 1 hr (reference value: 38.8 +/- 1.6 millimeter)
Mus musculus [5] = experiment: Gastroprotective activity in Swiss albino mouse assessed as reduction in HCl/EtOH-induced gastric lesions by measuring lesion index at 10 mg/kg, sc pretreated followed by HCl/EtOH challenge measured after 1 hr (reference value: 38.8 +/- 1.6 millimeter)
Mus musculus [6] = experiment: as §1, with “20” for “100”, “hr in presence of vanilloid receptor antagonist ruthenium red” for “hr”
Mus musculus [7] = experiment: (§2) Gastroprotective activity in Swiss albino mouse assessed as reduction in HCl/EtOH-induced gastric lesions by measuring lesion index at 20 mg/kg, po pretreated for 50 mins followed by HCl/EtOH challenge measured after 1 hr (reference value: 38.8 +/- 1.6 millimeter)
Mus musculus [8] = experiment: as §2, with “hr in presence of NO synthase inhibitor NG-nitro-L-arginine methyl ester” for “hr”
Mus musculus [9] = experiment: as §2, with “hr in presence of PG synthesis inhibitor indomethacin” for “hr”
Mus musculus [10] = experiment: as §2, with “hr in presence of sulfhydryl blocker N-ethylmaleimide” for “hr”

Compound | Activity (Mus musculus [1]) | further results
O=C(O)c1cc2ccc(O)cc2oc1=O | 60% | 
O=C(O)Cc1cc(=O)oc2cc(O)ccc12 | 68% | 
CC(=O)c1cc2ccc(O)cc2oc1=O | 15% | 
CC(=O)c1cc2cccc(O)c2oc1=O | 41% | 
CCOC(=O)c1cc2cccc(O)c2oc1=O | 15% | 
O=c1cc(CCl)c2ccc(O)cc2o1 | 57% | 
O=c1cc(CN2CCN(CCO)CC2)c2ccc(O)cc2o1 | 65% | 
O=C(Oc1ccccc1)c1cc2ccc(O)cc2oc1=O | 63% | 
CCOC(=O)c1cc2cccc(OC)c2oc1=O | 0% | 
CNCc1cc(=O)oc2cc(O)ccc12 | 49% | 
CCOC(=O)c1cc2ccccc2oc1=O | 35% | 
O=c1cc(CCl)c2c(O)cc(O)cc2o1 | 42% | 
CC(=O)c1cc2ccccc2oc1=O [3-ACETYLCOUMARIN] | 66% | 
Cc1cc(=O)oc2cc(O)cc(O)c12 [5,7-DIHYDROXY-4-METHYLCOUMARIN] | 45% | 
CC1(C)[C@@H](OC(=O)CCC(=O)O)CC[C@]2(C)[C@H]3C(=O)C=C4[C@@H]5C[C@@](C)(C(=O)O)CC[C@]5(C)CC[C@@]4(C)[C@]3(C)CC[C@@H]12 [CARBENOXOLONE] |  | Activity (Mus musculus [2]): 13.1 mm
O=c1ccc2cc(O)c(O)cc2o1 [ESCULETIN] | 17% | 
Cc1cc(=O)oc2cc(O)ccc12 [HYMECROMONE] | 31% | 
COc1ccc2c(c1)c(CC(=O)O)c(C)n2C(=O)c1ccc(Cl)cc1 [INDOMETHACIN] |  | Activity (Mus musculus [3]): 41.1 mm
COC(=O)[C@@H](N)CCCNC(=N)N[N+](=O)[O-] [L-NAME] |  | Activity (Mus musculus [4]): 35.7 mm
Cc1c(OCC(F)(F)F)ccnc1C[S+]([O-])c1nc2ccccc2[nH]1 (stereo not drawn) [LANSOPRAZOLE] | 74% | 
CCN1C(=O)C=CC1=O [N-ETHYLMALEIMIDE] |  | Activity (Mus musculus [5]): 40.1 mm
O=c1cc(CN2CCOCC2)c2ccc(O)cc2o1 [OXAZORONE] | 75% | Activity (Mus musculus [6]): 14.4 mm; Activity (Mus musculus [7]): 10.3 mm; Activity (Mus musculus [8]): 34.7 mm; Activity (Mus musculus [9]): 13.6 mm; Activity (Mus musculus [10]): 28.8 mm
COc1cc2ccc(=O)oc2cc1O [SCOPOLETIN] | 61% | 

— ChEMBL document CHEMBL3867465, “Gastroprotective activity of synthetic coumarins: Role of endogenous prostaglandins, nitric oxide, non-protein sulfhydryls and vanilloid receptors” (2016)
